# Measured values from patent publication US20240360157A1, “TYK2 INHIBITORS” (BIOGEN MA INC., priority 2021, published 2024).
# Structures can show the parent of a compound that is named as a salt.
# Tests used:
# Format in all cases: biochemical
# [1] = target: human TYK2 catalytic kinase (JH1) domain (Homo sapiens (Human), UniProt P29597); test: ADP-Glo Kinase Assay, recombinant TYK2 catalytic kinase (JH1) domain; settings: recombinant JH1 domain 2 nM, 10 μM ATP, JAK3-974 peptide, mean, read-out: TYK2 biochem IC50 (nM) Mean
# Summary of the method: (§1)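 ADP-Glo luminescence with 50 μM peptide and 100 min reactions: JAK1 4 nM with JAK3-342 peptide; JAK2, JAK3 and TYK2 at 0.2, 0.3 and 2 nM with JAK3-974 peptide. Compounds tested from 10 or 1 μM top, 11 points, 3-fold. IC50 from a 4-parameter logistic fit of normalized activity.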
# [2] = target: human JAK1 catalytic kinase (JH1) domain (Homo sapiens (Human), UniProt P23458); test: ADP-Glo Kinase Assay, recombinant JAK1 catalytic kinase (JH1) domain; settings: recombinant JH1 domain 4 nM, 35 μM ATP, JAK3-342 peptide, mean, read-out: JAK1 biochem IC50 (nM) Mean
# Summary of the method: as §1
# [3] = target: human JAK2 catalytic kinase (JH1) domain (Homo sapiens (Human), UniProt O60674); test: ADP-Glo Kinase Assay, recombinant JAK2 catalytic kinase (JH1) domain; settings: recombinant JH1 domain 0.2 nM, 15 μM ATP, JAK3-974 peptide, mean, read-out: JAK2 biochem IC50 (nM) Mean
# Summary of the method: as §1
# [4] = target: human JAK3 catalytic kinase (JH1) domain (Homo sapiens (Human), UniProt P52333); test: ADP-Glo Kinase Assay, recombinant JAK3 catalytic kinase (JH1) domain; settings: recombinant JH1 domain 0.3 nM, 4 μM ATP, JAK3-974 peptide, mean, read-out: JAK3 biochem IC50 (nM) Mean
# Summary of the method: as §1
# Sequence of human JAK3 catalytic kinase (JH1) domain (P52333 822-1111): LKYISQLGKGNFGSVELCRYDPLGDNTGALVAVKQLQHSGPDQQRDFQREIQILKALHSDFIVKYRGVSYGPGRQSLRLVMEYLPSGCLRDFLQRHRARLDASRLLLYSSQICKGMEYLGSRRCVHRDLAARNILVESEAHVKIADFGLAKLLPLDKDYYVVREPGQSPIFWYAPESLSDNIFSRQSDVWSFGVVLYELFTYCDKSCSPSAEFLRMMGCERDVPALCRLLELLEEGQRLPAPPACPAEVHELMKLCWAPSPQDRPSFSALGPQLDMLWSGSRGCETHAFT
# Sequence of human JAK1 catalytic kinase (JH1) domain (P23458 875-1153): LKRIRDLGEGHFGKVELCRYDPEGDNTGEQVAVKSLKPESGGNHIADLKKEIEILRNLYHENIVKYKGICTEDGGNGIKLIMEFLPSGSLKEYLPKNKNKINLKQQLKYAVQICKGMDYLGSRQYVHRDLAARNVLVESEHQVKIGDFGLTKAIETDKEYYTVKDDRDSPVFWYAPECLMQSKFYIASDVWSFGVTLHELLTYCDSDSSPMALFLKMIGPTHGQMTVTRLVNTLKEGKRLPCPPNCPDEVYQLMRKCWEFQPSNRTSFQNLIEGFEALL
# Sequence of human TYK2 catalytic kinase (JH1) domain (P29597 897-1176): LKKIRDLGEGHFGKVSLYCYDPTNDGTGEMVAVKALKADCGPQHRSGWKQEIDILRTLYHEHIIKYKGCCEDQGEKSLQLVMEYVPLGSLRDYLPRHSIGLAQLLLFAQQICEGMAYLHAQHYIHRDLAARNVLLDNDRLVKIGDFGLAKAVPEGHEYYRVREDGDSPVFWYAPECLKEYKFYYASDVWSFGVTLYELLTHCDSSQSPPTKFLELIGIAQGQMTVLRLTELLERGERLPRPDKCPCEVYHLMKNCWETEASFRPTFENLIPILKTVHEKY
# Sequence of human JAK2 catalytic kinase (JH1) domain (O60674 849-1124): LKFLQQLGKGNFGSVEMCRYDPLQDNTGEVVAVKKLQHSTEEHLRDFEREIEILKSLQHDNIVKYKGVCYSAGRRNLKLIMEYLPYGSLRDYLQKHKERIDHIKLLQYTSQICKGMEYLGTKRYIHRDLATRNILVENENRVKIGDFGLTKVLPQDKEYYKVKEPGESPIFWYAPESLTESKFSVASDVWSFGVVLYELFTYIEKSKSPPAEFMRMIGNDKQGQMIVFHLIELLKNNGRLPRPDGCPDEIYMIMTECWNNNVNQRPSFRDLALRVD
SMILES,IC50 [1] [nM],IC50 [2] [nM],IC50 [3] [nM],IC50 [4] [nM]
"COc1cc(-c2cn3ncc(F)c(N4CC5CCC(C4)N5C(=O)[C@@H]4C[C@H]4F)c3n2)ccn1 (stereo in doubt) [Example 142, (3-(7-fluoro-2-(2-methoxypyridin-4-yl)imidazo[1,2-b]pyridazin-8-yl)-3,8-diazabicyclo[3.2.1]octan-8-yl)((1S,2R)-2-fluorocyclopropyl)methanone]",19.6,46,270,514
"COc1nccc(-c2cc3c(N4CC5CCC(C4)N5C(=O)[C@@H]4C[C@H]4F)ccnn3c2)c1F [Example 26, (3-(6-(3-fluoro-2-methoxypyridin-4-yl)pyrrolo[1,2-b]pyridazin-4-yl)-3,8-diazabicyclo[3.2.1]octan-8-yl)((1S,2R)-2-fluorocyclopropyl)methanone]",9.8,292,145,1190
CCn1cc(-c2cc3c(N4CC5CCC(C4)N5C(=O)C4CC4)ncnn3c2)cn1 [Example 147],147,974,2960,2090
"O=C([C@@H]1C[C@H]1F)N1C2CCC1CN(c1ccnn3cc(-c4ncc(F)cn4)cc13)C2 [Example 108, ((1S,2R)-2-fluorocyclopropyl)(3-(6-(5-fluoropyrimidin-2-yl)pyrrolo[1,2-b]pyridazin-4-yl)-3,8-diazabicyclo[3.2.1]octan-8-yl)methanone]",48,909,1050,3920
"Cn1cc(-c2cc3c(N4CC5CCC(C4)N5C(=O)[C@@H]4C[C@H]4F)ncnn3c2)cn1 [Example 82, ((1S,2R)-2-fluorocyclopropyl)(3-(6-(1-methyl-1H-pyrazol-4-yl)pyrrolo[2,1-f][1,2,4]triazin-4-yl)-3,8-diazabicyclo[3.2.1]octan-8-yl)methanone]",400,1650,8860,3060
"O=C([C@H]1CC1(F)F)N1C2CCC1CN(c1ncnn3cc(-c4cnn(C(F)F)c4)cc13)C2 (single isomer, unassigned) [Example 77]",46.3,1290,1410,8880
COc1ccc(-c2cc3c(N4CC5CCC(C4)N5C(=O)C4CC4)ncnn3c2)cc1C#N [Example 185],398,2540,10000,10000
"COc1cc(-c2cc3c(N4CC5CCC(C4)N5C(=O)[C@@H]4C[C@H]4F)ncnc3[nH]2)ccn1 [Example 231, ((1S,2R)-2-fluorocyclopropyl)(3-(6-(2-methoxypyridin-4-yl)-7H-pyrrolo[2,3-d]pyrimidin-4-yl)-3,8-diazabicyclo[3.2.1]octan-8-yl)methanone]",12.4,115,307,877
"COc1ccc(-c2cc3c(N4CC5CCC(C4)N5C(=O)[C@@H]4C[C@H]4F)ncnc3[nH]2)cn1 [Example 225, ((1S,2R)-2-fluorocyclopropyl)(3-(6-(6-methoxypyridin-3-yl)-7H-pyrrolo[2,3-d]pyrimidin-4-yl)-3,8-diazabicyclo[3.2.1]octan-8-yl)methanone]",21.3,245,357,735
"Cn1cc(-c2cc3c(N4CC5CCC(C4)N5C(=O)C4CC4)ncnc3[nH]2)cn1 [Example 220, cyclopropyl(3-(6-(1-methyl-1H-pyrazol-4-yl)-7H-pyrrolo[2,3-d]pyrimidin-4-yl)-3,8-diazabicyclo[3.2.1]octan-8-yl)methanone]",34,242,690,501
"CN(C)c1cc(-c2cc3c(N4CC5CCC(C4)N5C(=O)[C@@H]4C[C@H]4F)ccnn3c2)cnn1 [Example 138, (3-(6-(6-(dimethylamino)pyridazin-4-yl)pyrrolo[1,2-b]pyridazin-4-yl)-3,8-diazabicyclo[3.2.1]octan-8-yl)((1S,2R)-2-fluorocyclopropyl)methanone]",13.8,57,395,3930
"Cn1cc(-c2cc3c(N4CC5CCC(C4)N5C(=O)C4CC(F)(F)C4)ncnn3c2)cn1 [Example 70, (3,3-difluorocyclobutyl)(3-(6-(1-methyl-1H-pyrazol-4-yl)pyrrolo[2,1-f][1,2,4]triazin-4-yl)-3,8-diazabicyclo[3.2.1]octan-8-yl)methanone]",382,2430,6360,5090
"C[C@]1(F)C[C@@H](C(=O)N2C3CCC2CN(c2ncnn4cc(-c5cnn(C(F)F)c5)cc24)C3)C1 [Example 33, (3-(6-(1-(difluoromethyl)-1H-pyrazol-4-yl)pyrrolo[2,1-f][1,2,4]triazin-4-yl)-3,8-diazabicyclo[3.2.1]octan-8-yl)((1s,3s)-3-fluoro-3-methylcyclobutyl)methanone trifluoroacetate]",476,854,6140,4430
"Cn1ncc(-c2cc3c(N4CC5CCC(C4)N5C(=O)C4(F)CC4)ccnc3[nH]2)c1F [Example 242, (3-(2-(5-fluoro-1-methyl-1H-pyrazol-4-yl)-1H-pyrrolo[2,3-b]pyridin-4-yl)-3,8-diazabicyclo[3.2.1]octan-8-yl)(1-fluorocyclopropyl)methanone]",113,362,690,296
O=C(C1CC1)N1C2CCC1CN(c1ncnn3cc(-c4cnn(C(F)(F)F)c4)cc13)C2 [Example 154],490,2950,10000,10000
"CC1(C)C(C(=O)N2C3CCC2CN(c2ncnn4cc(-c5cnn(C(F)F)c5)cc24)C3)C1(F)F (stereo not drawn) [Example 13, (2,2-difluoro-3,3-dimethylcyclopropyl)(3-(6-(1-(difluoromethyl)-1H-pyrazol-4-yl)pyrrolo[2,1-f][1,2,4]triazin-4-yl)-3,8-diazabicyclo[3.2.1]octan-8-yl)methanone]",688,3360,9150,7220
"Cn1cc(-c2cc3c(N4CC5CCC(C4)N5S(=O)(=O)[C@H]4CC4(F)F)ccnn3c2)cn1 [Example 197, 4-(8-(((S)-2,2-difluorocyclopropyl)sulfonyl)-3,8-diazabicyclo[3.2.1]octan-3-yl)-6-(1-methyl-1H-pyrazol-4-yl)pyrrolo[1,2-b]pyridazine]",16.7,322,99,701
"Cc1cc(-c2cc3c(N4CC5CCC(C4)N5C(=O)C4CC4)ncnn3c2)on1 [Example 158, Cyclopropyl(3-(6-(3-methylisoxazol-5-yl)pyrrolo[2,1-f][1,2,4]triazin-4-yl)-3,8-diazabicyclo[3.2.1]octan-8-yl)methanone]",656,8060,10000,10000
"O=C([C@@H]1C[C@H]1F)N1C2CCC1CN(c1ccnn3cc(-c4ccnc(N5CCC5)c4)cc13)C2 [Example 119, (3-(6-(2-(azetidin-1-yl)pyridin-4-yl)pyrrolo[1,2-b]pyridazin-4-yl)-3,8-diazabicyclo[3.2.1]octan-8-yl)((1S,2R)-2-fluorocyclopropyl)methanone]",45,1720,215,5520
"N#Cc1cc(-c2cc3c(N4CC5CCC(C4)N5C(=O)[C@@H]4C[C@H]4F)ncnc3[nH]2)ccn1 [Example 233, 4-(4-(8-((1S,2R)-2-fluorocyclopropane-1-carbonyl)-3,8-diazabicyclo[3.2.1]octan-3-yl)-7H-pyrrolo[2,3-d]pyrimidin-6-yl)picolinonitrile]",15.4,174,248,3240
"CNc1cc(-c2cc3c(N4CC5CCC(C4)N5C(=O)[C@@H]4C[C@H]4F)ncnn3c2)ccn1 [Example 94, ((1S,2R)-2-fluorocyclopropyl)(3-(6-(2-(methylamino)pyridin-4-yl)pyrrolo[2,1-f][1,2,4]triazin-4-yl)-3,8-diazabicyclo[3.2.1]octan-8-yl)methanone]",18.6,230,590,2940
O=C(C1CC1)N1C2CCC1CN(c1ncnn3cc(-c4cnn(CC5COC5)c4)cc13)C2 [Example 160],107,555,931,780
"Cc1cc(-c2cc3c(N4CC5CCC(C4)N5C(=O)[C@@H]4C[C@H]4F)ccnn3c2)ncn1 [Example 106, ((1S,2R)-2-fluorocyclopropyl)(3-(6-(6-methylpyrimidin-4-yl)pyrrolo[1,2-b]pyridazin-4-yl)-3,8-diazabicyclo[3.2.1]octan-8-yl)methanone]",13.7,448,178,3200
"O=C([C@H]1C[C@@H]1F)N1C2CCC1CN(c1ncnn3cc(-c4cnn(C(F)F)c4)cc13)C2 [Example 4, (3-(6-(1-(difluoromethyl)-1H-pyrazol-4-yl)pyrrolo[2,1-f][1,2,4]triazin-4-yl)-3,8-diazabicyclo[3.2.1]octan-8-yl)((1R,2S)-2-fluorocyclopropyl)methanone]",73.6,452,1450,776
